Data published in patent US10750743B2, “Pyridazinone herbicides” (E.I. DU PONT DE NEMOURS AND COMPANY, priority 2015, dated 2020).

Assays:
Assay type in all cases: in vivo
[1] = test system: barnyardgrass (Echinochloa crus-galli); assay: Test A preemergence, directed soil spray, visual injury rating; conditions: Echinochloa crus-galli, pre-emergence, 240 h, 0 is no effect, 100 is complete control, read-out: Plant response rating (0 to 100 scale), Barnyardgrass; for pest or weed control at 125 g/ha: 125 g ai/ha; for pest or weed control at 500 g/ha: 500 g ai/ha
In short: (§1)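 Injury ratings, 0 (no effect) to 100 (complete control), were scored visually versus untreated plants roughly 10 d after treatment under greenhouse conditions. Treatments used surfactant-containing solvent formulations, sprayed onto soil preemergence or onto one- to two-leaf seedlings (2-10 cm) postemergence, grown in a loam-sand mix.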

[2] = test system: foxtail, giant (giant foxtail, Setaria faberii); assay: as above; conditions: Setaria faberi, pre-emergence, 240 h, 0 is no effect, 100 is complete control, read-out: Plant response rating (0 to 100 scale), Foxtail, Giant; for pest or weed control at 125 g/ha: 125 g ai/ha; for pest or weed control at 500 g/ha: 500 g ai/ha
In short: as §1

kochia (Kochia scoparia) [3] = assay: as above; conditions: Bassia scoparia, pre-emergence, 240 h, 0 is no effect, 100 is complete control, read-out: Plant response rating (0 to 100 scale), Kochia; for pest or weed control at 125 g/ha: 125 g ai/ha; for pest or weed control at 500 g/ha: 500 g ai/ha
In short: as §1

[4] = test system: pigweed (Amaranthus retroflexus); assay: as above; conditions: Amaranthus retroflexus, pre-emergence, 240 h, 0 is no effect, 100 is complete control, read-out: Plant response rating (0 to 100 scale), Pigweed; for pest or weed control at 125 g/ha: 125 g ai/ha; for pest or weed control at 500 g/ha: 500 g ai/ha
In short: as §1

[5] = test system: ragweed (common ragweed, Ambrosia elatior); assay: as above; conditions: Ambrosia artemisiifolia, pre-emergence, 240 h, 0 is no effect, 100 is complete control, read-out: Plant response rating (0 to 100 scale), Ragweed; for pest or weed control at 125 g/ha: 125 g ai/ha; for pest or weed control at 500 g/ha: 500 g ai/ha
In short: as §1

[6] = test system: ryegrass, It. (Italian ryegrass, Lolium multiflorum); assay: as above; conditions: Lolium multiflorum, pre-emergence, 240 h, 0 is no effect, 100 is complete control, read-out: Plant response rating (0 to 100 scale), Ryegrass, It.; for pest or weed control at 125 g/ha: 125 g ai/ha; for pest or weed control at 500 g/ha: 500 g ai/ha
In short: as §1

[7] = test system: barnyardgrass (Echinochloa crus-galli); assay: Test B flooded paddy test, visual rating; conditions: Echinochloa crus-galli, 360 h; Flood, 250 g ai/ha, applied to paddy water, rated after 13 to 15 d; read-out: Barnyardgrass plant response rating (0 to 100 scale, 0 is no effect, 100 is complete control)
In short: (§2)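 Ratings use a 0-100 visual scale, where 100 is complete control, and compare treated plants with controls after 13 to 15 d of greenhouse growth. Compound went straight into paddy water kept 3 cm over the soil surface, applied to seedlings at the 2-leaf stage.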

[8] = test system: ducksalad (Heteranthera limosa); assay: Test B flooded paddy test, visual rating; conditions: Heteranthera limosa, 360 h; Flood, 250 g ai/ha, applied to paddy water, rated after 13 to 15 d; read-out: Ducksalad plant response rating (0 to 100 scale, 0 is no effect, 100 is complete control)
In short: as §2

rice (Oryza sativa) = assay: Test B flooded paddy test, visual rating; conditions: Oryza sativa, 360 h; Flood, 250 g ai/ha, applied to paddy water, rated after 13 to 15 d; read-out: Rice plant response rating (0 to 100 scale, 0 is no effect, 100 is complete control)
In short: as §2

[9] = test system: barnyardgrass (Echinochloa crus-galli); assay: Test A postemergence application, visual injury rating; conditions: Echinochloa crus-galli, post-emergence, 240 h, 0 to 100 scale, 0 no effect, 100 complete control, read-out: Barnyardgrass plant response rating; for pest or weed control at 125 g/ha: 125 g ai/ha; for pest or weed control at 500 g/ha: 500 g ai/ha
In short: as §1

[10] = test system: blackgrass (Alopecurus myosuroides); assay: as above; conditions: Alopecurus myosuroides, post-emergence, 240 h, 0 to 100 scale, 0 no effect, 100 complete control, read-out: Blackgrass plant response rating; for pest or weed control at 125 g/ha: 125 g ai/ha; for pest or weed control at 500 g/ha: 500 g ai/ha
In short: as §1

corn (Zea mays) = assay: as above; conditions: Zea mays, post-emergence, 240 h, 0 to 100 scale, 0 no effect, 100 complete control, read-out: Corn plant response rating; for plant injury at 125 g/ha: 125 g ai/ha; for plant injury at 500 g/ha: 500 g ai/ha
In short: as §1

[11] = test system: foxtail, giant (giant foxtail, Setaria faberii); assay: as above; conditions: Setaria faberi, post-emergence, 240 h, 0 to 100 scale, 0 no effect, 100 complete control, read-out: Foxtail, Giant plant response rating; for pest or weed control at 125 g/ha: 125 g ai/ha; for pest or weed control at 500 g/ha: 500 g ai/ha
In short: as §1

[12] = test system: galium (catchweed bedstraw, Galium aparine); assay: as above; conditions: Galium, post-emergence, 240 h, 0 to 100 scale, 0 no effect, 100 complete control, read-out: Galium plant response rating; for pest or weed control at 125 g/ha: 125 g ai/ha; for pest or weed control at 500 g/ha: 500 g ai/ha
In short: as §1

kochia (Kochia scoparia) [13] = assay: as above; conditions: Bassia scoparia, post-emergence, 240 h, 0 to 100 scale, 0 no effect, 100 complete control, read-out: Kochia plant response rating; for pest or weed control at 125 g/ha: 125 g ai/ha; for pest or weed control at 500 g/ha: 500 g ai/ha
In short: as §1

[14] = test system: pigweed (Amaranthus retroflexus); assay: as above; conditions: Amaranthus retroflexus, post-emergence, 240 h, 0 to 100 scale, 0 no effect, 100 complete control, read-out: Pigweed plant response rating; for pest or weed control at 125 g/ha: 125 g ai/ha; for pest or weed control at 500 g/ha: 500 g ai/ha
In short: as §1

[15] = test system: ragweed (common ragweed, Ambrosia elatior); assay: as above; conditions: Ambrosia artemisiifolia, post-emergence, 240 h, 0 to 100 scale, 0 no effect, 100 complete control, read-out: Ragweed plant response rating; for pest or weed control at 125 g/ha: 125 g ai/ha; for pest or weed control at 500 g/ha: 500 g ai/ha
In short: as §1

[16] = test system: ryegrass, It. (Italian ryegrass, Lolium multiflorum); assay: as above; conditions: Lolium multiflorum, post-emergence, 240 h, 0 to 100 scale, 0 no effect, 100 complete control, read-out: Ryegrass, It. plant response rating; for pest or weed control at 125 g/ha: 125 g ai/ha; for pest or weed control at 500 g/ha: 500 g ai/ha
In short: as §1

[17] = test system: wheat (Triticum aestivum); assay: as above; conditions: Triticum aestivum, post-emergence, 240 h, 0 to 100 scale, 0 no effect, 100 complete control, read-out: Wheat plant response rating; for plant injury at 125 g/ha: 125 g ai/ha; for plant injury at 500 g/ha: 500 g ai/ha
In short: as §1

SMILES | pest or weed control at 125 g/ha [1] | pest or weed control at 500 g/ha [1] | pest or weed control at 125 g/ha [2] | pest or weed control at 500 g/ha [2] | pest or weed control at 125 g/ha (kochia (Kochia scoparia) [3]) | pest or weed control at 500 g/ha (kochia (Kochia scoparia) [3]) | pest or weed control at 125 g/ha [4] | pest or weed control at 500 g/ha [4] | pest or weed control at 125 g/ha [5] | pest or weed control at 500 g/ha [5] | pest or weed control at 125 g/ha [6] | pest or weed control at 500 g/ha [6] | pest or weed control at 250 g/ha [7] | pest or weed control at 250 g/ha [8] | plant injury at 250 g/ha (rice (Oryza sativa)) | pest or weed control at 125 g/ha [9] | pest or weed control at 500 g/ha [9] | pest or weed control at 125 g/ha [10] | pest or weed control at 500 g/ha [10] | plant injury at 125 g/ha (corn (Zea mays)) | also measured
Cc1cc2ccc(C)c(-c3c(O)c(C)nn(C)c3=O)c2o1 [Compound 10, 4-(2,6-dimethyl-7-benzofuranyl)-5-hydroxy-2,6-dimethyl-3(2H)-pyridazinone] | 80% | 90% | 80% | 100% | 100% | 100% | 100% | 100% | 90% | 90% | 100% | 100% | 0% | 0% | 0% | 50% | 90% | 60% | 90% | 10% | plant injury at 500 g/ha (corn (Zea mays)): 30%; pest or weed control at 125 g/ha [11]: 80%; pest or weed control at 500 g/ha [11]: 90%; pest or weed control at 125 g/ha [12]: 100%; pest or weed control at 500 g/ha [12]: 100%; pest or weed control at 125 g/ha (kochia (Kochia scoparia) [13]): 100%; pest or weed control at 500 g/ha (kochia (Kochia scoparia) [13]): 100%; pest or weed control at 125 g/ha [14]: 90%; pest or weed control at 500 g/ha [14]: 100%; pest or weed control at 125 g/ha [15]: 100%; pest or weed control at 500 g/ha [15]: 100%; pest or weed control at 125 g/ha [16]: 100%; pest or weed control at 500 g/ha [16]: 100%; plant injury at 125 g/ha [17]: 20%; plant injury at 500 g/ha [17]: 60%
Cc1nn(C)c(=O)c(-c2cccc3snc(C)c23)c1O [Compound 25, 5-hydroxy-2,6-dimethyl-4-(3-methyl-1,2-benzisothiazol-4-yl)-3 (2H)-pyridazinone] | 0% | 40% | 30% | 80% | 100% | 100% | 80% | 100% | 40% | 70% | 0% | 30% | 0% | 0% | 0% | 20% | 40% | 20% | 30% | 0% | plant injury at 500 g/ha (corn (Zea mays)): 20%; pest or weed control at 125 g/ha [11]: 30%; pest or weed control at 500 g/ha [11]: 80%; pest or weed control at 125 g/ha [12]: 80%; pest or weed control at 500 g/ha [12]: 90%; pest or weed control at 125 g/ha (kochia (Kochia scoparia) [13]): 100%; pest or weed control at 500 g/ha (kochia (Kochia scoparia) [13]): 100%; pest or weed control at 125 g/ha [14]: 90%; pest or weed control at 500 g/ha [14]: 90%; pest or weed control at 125 g/ha [15]: 70%; pest or weed control at 500 g/ha [15]: 90%; pest or weed control at 125 g/ha [16]: 20%; pest or weed control at 500 g/ha [16]: 70%; plant injury at 125 g/ha [17]: 20%; plant injury at 500 g/ha [17]: 30%
